Data set [1] relates to carrageenin induced edema. Briefly: carrageenin induced edema of the rat hind paw (anti-inflammatory). Format: in vivo. The conditions noted are these: rats. The method, then:
The anti-inflammatory activity of some representative compounds of formula I as hereinbefore described was evidenced by means of the carrageenin tests in rats. This test is carried out in the hind paw of the rat which paw has been inflammed by injection of carrageenin according to the technique described by C.A. Winter and coworker, Proc. Soc. Exptl. Biol. Med. III, 554 (1962). In following Table I are reported the percent inhibition of the carrageenin induced edema at the dose level indicated for each compound.
In general terms: In the carrageenan paw model, swelling and tenderness develop within hours.

In data set [2] the test system is female Syrian golden hamsters. Briefly: anti-fertility activity in pregnant hamsters. The following applies: Mesocricetus auratus, sc, 5 mg/kg s.c., day 4 through day 8, autopsy day 14 of pregnancy, read-out: treated animals in which the number of live fetuses was either eliminated or severely reduced. Format: in vivo, hamster (Syrian golden). The method, then:
The anti-fertility activity of these compounds in rats was also confirmed in other species including mice, hamsters, rabbits, dogs, monkeys and baboons. With hamsters, the same criteria and conditions are followed as for testing in rats, with the exception that the animals (female Syrian golden hamsters weighing 100 to 130 g) are treated on day 4 through day 8 with 5 mg/kg s.c. of the test compound and are autopsied on day 14 of pregnancy.

In data set [3] the test system is female Sprague-Dawley rats. Briefly: anti-fertility activity in pregnant rats. Format: in vivo, rat (Sprague-Dawley). The method, then:
Representative experiments for assessing anti-fertility activity are carried out with female Sprague-Dawley rats weighing 200-230 g. They were mated with proven fertile males. The presence of sperm in the vagina of these animals is evidence of mating and is also considered as being day one of pregnancy. Pregnancy is confirmed at the time of autopsy by the presence of fetuses or implantation sites in the uterus. Even when animals abort the fetuses, implantation scars remain as evidence that the animal had been pregnant.
[…] These animals were autopsied on day 16 of pregnancy and the uteri were examined for evidence of pregnancy and termination of pregnancy such as implantation sites, live or resorbing fetuses and hemorrage as well as abnormalities of the uterus, placenta or fetuses. A compound is considered to be active if there is a reduction of live fetuses in at least 60% of the treated animals and the presence of implantation sites proves the animals to have been pregnant.

Another data set has as its system baboons. Briefly: anti-fertility test in baboons. It counts as in vivo, baboon.
A further data set relates to conditioned rats. Kind of data set: secondary conditioned avoidance response test (anti-anxiety). It counts as in vivo, rat. The protocol:
The CNS depressant properties of compounds hereinbefore described were investigated according to the Irwin method and in particular the anti-anxiety effect was evaluated on the basis of the secondary conditioned avoidance response test. A specific anti-anxiety effect was evidenced by administering to conditioned rats doses of 15-60 mg/kg i.p. of representative said compounds of the invention.
Following Table II indicates the ratio of the rats which are deconditioned after administration of predetermined amounts of said representative compounds: […]

Data set [4] is described as follows: toxicity, LD50 i.p. in mice. The conditions noted are these: mouse, in vivo, ip.
In data set [5] the test system is Mycobacterium tubercolosis H37 Rv. Briefly: minimal inhibitory concentration, bacterial growth. Format: cell-based. The conditions noted are these: H37RV, read-out: M.I.C. (minimal inhibitory concentration). The method, then: In evaluating the antimicrobial utility of representative compounds as hereinbefore described, the minimal concentration of substance inhibiting bacterial growth (M.I.C.=minimal inhibitory concentration) was determined.

Data set [6] has as its system pain threshold of the rats. Briefly: analgesic activity, Randall and Selitto procedure, pain threshold. Format: in vivo, rat. The conditions noted are these: 50 mg/kg i.p. The method, then: The analgesic activity of representative compounds as hereinbefore described was assessed in rats by following essentially the procedure described by L. O. Randall and J. J. Selitto, Arch. Int. Pharmacodyn., 111, 409 (1957).

The values that follow come from patent US4007276A, “Triazolo isoindole derivatives” (Gruppo Lepetit, S.p.A., priority 1973, dated 1977).

The LD50 is the dose at which mortality reaches 50%. Higher therefore signals lower toxicity.

Values after ≈ are worked out from the molar mass of the structure shown. Some results are limits rather than exact numbers.

On to `O=C(Nc1nc2n(n1)Cc1ccccc1-2)c1ccccc1` [f, 2-benzoylamino-5H-s-triazolo[5,1-a]isoindole], for which, in data set [1] (100 mg/Kg p.o.), the “Per Cent Inhibition of the Edema” value was found to be 28 Per Cent. Regarding `COc1ccc(-c2nc3n(n2)Cc2ccccc2-3)cc1` [2-(p-Methoxyphenyl)-5H-s-triazolo[5,1-a]isoindole], the responders at 5 mg/kg in data set [2] is at least 60%. Regarding `Sc1nc2n(n1)Cc1ccccc1-2` [g, 2-sulfhydryl-5H-s-triazolo[5,1-a]isoindole], the “Per Cent Inhibition of the Edema” value in data set [1] (50 mg/Kg p.o.) is reported as 39 Per Cent; in data set [1] (100 mg/Kg p.o.) it was 49 Per Cent. Regarding `Oc1cccc(-c2nc3n(n2)Cc2ccccc2-3)c1` [2-(m-Hydroxyphenyl)-5H-s-triazolo[5,1-a]isoindole], in data set [2], the responders at 5 mg/kg is at least 60%. Turning to `CC(=O)Nc1nc2n(n1)Cc1ccccc1-2` [c, 2-acetamido-5H-s-triazolo[5,1-a]isoindole], the “Per Cent Inhibition of the Edema” value turned out to be 35 Per Cent in data set [1] (50 mg/Kg p.o.) and 54 Per Cent in data set [1] (100 mg/Kg p.o.). For the molecule `FC(F)(F)c1cccc(-c2nc3n(n2)Cc2ccccc2-3)c1` [2-(m-Trifluoromethylphenyl)-5H-s-triazolo[5,1-a]isoindole], the responders at 5 mg/kg in data set [2] was at least 60%. Take `CN(C)c1cccc(-c2nc3n(n2)Cc2ccccc2-3)c1` [2-(m-Dimethylaminophenyl)-5H-s-triazolo[5,1-a]isoindole]: the responders at 5 mg/kg in data set [2] is at least 60%. In the case of `COc1cccc(-c2nc3n(n2)Cc2ccc(Cl)cc2-3)c1` [8-Chloro-2-(m-methoxyphenyl)-5H-s-triazolo[5,1-a]isoindole], the responders at 5 mg/kg in data set [2] is at least 60%.

For the molecule `COc1ccc2c(c1)-c1nc(-c3ccccc3)nn1C2` [8-Methoxy-2-phenyl-5H-s-triazolo[5,1-a]isoindole], the responders at 5 mg/kg in data set [2] was at least 60%.

Turning to `c1ccc(-c2nc3n(n2)Cc2ccccc2-3)cc1` [2-Phenyl-5H-s-triazolo[5,1-a]isoindole], the “% Animals Aborting” value in data set [3] (1.25 mg/kg/day s.c.) turned out to be 20%; in data set [3] (2.5 mg/kg/day s.c.) it was 80%. In addition, in data set [2], the responders at 5 mg/kg was at least 60%. As for `c1ccc(COc2cccc(-c3nc4n(n3)Cc3ccccc3-4)c2)cc1` [2-(m-Benzyloxyphenyl)-5H-s-triazolo[5,1-a]isoindole], in data set [2], the responders at 5 mg/kg was at least 60%.

For `CC(=O)N(C(C)=O)c1nc2n(n1)Cc1ccccc1-2` [d, 2-diacetylamino-5H-s-triazolo[5,1-a]isoindole], the “Per Cent Inhibition of the Edema” value in data set [1] (50 mg/Kg p.o.) amounted to 34 Per Cent; in data set [1] (100 mg/Kg p.o.), 53 Per Cent. As to `COc1cccc(-c2nc3n(n2)Cc2ccccc2-3)c1` [2-(m-Methoxyphenyl)-5H-s-triazolo[5,1-a]isoindole], the “% Animals Aborting” value in data set [3] (0.155 mg/kg/day s.c.) turned out to be 0%; in data set [3] (0.31 mg/kg/day s.c.), 0%; in data set [3] (0.62 mg/kg/day s.c.) it was 38.5%; in data set [3] (1.25 mg/kg/day s.c.), 70.8%; in data set [3] (2.5 mg/kg/day s.c.), 100%; in data set [3] (5 mg/kg/day s.c.), 100%. In addition, the responders at 5 mg/kg in data set [2] was at least 60%. In addition, the induced abortion entry in the data set with baboons is “induced abortion in every animal studied”. As for `Cc1ccc(-c2nc3n(n2)Cc2ccccc2-3)cc1` [2-(p-Tolyl)-5H-s-triazolo[5,1-a]isoindole], in data set [2], the responders at 5 mg/kg was at least 60%. As for `Cc1nc2n(n1)Cc1ccccc1-2` [2-Methyl-5H-s-triazolo[5,1-a]isoindole], the Deconditioned / treated with conditioned rats (15 mg/kg i.p.) is recorded as 6/10; in the data set with conditioned rats (30 mg/kg i.p.), 7/10. In addition, the median lethal dose (LD50) in data set [4] is above 400 mg/kg. Consider `COc1cccc(-c2nc3n(n2)Cc2cc(OC)ccc2-3)c1` [7-Methoxy-2-(m-methoxyphenyl)-5H-s-triazolo[5,1-a]isoindole], for which the responders at 5 mg/kg in data set [2] is at least 60%. For the molecule `COc1cccc(-c2nc3n(n2)Cc2ccc(OC)cc2-3)c1` [8-Methoxy-2-(m-methoxyphenyl)-5H-s-triazolo[5,1-a]isoindole], the “% Animals Aborting” value in data set [3] (2.5 mg/kg/day s.c.) is recorded as 57.1%; in data set [3] (5 mg/kg/day s.c.) it was 100%. The responders at 5 mg/kg in data set [2] is at least 60%. For the molecule `Fc1ccc(-c2nc3n(n2)Cc2ccccc2-3)cc1` [2-(p-Fluorophenyl)-5H-s-triazolo[5,1-a]isoindole], the responders at 5 mg/kg in data set [2] was at least 60%. As for `NC(=O)Nc1nc2n(n1)Cc1ccccc1-2` [e, 2-ureido-5H-s-triazolo[5,1-a]isoindole], in data set [1] (100 mg/Kg p.o.), the “Per Cent Inhibition of the Edema” value came out at 29 Per Cent. Regarding `c1ccc2c(c1)Cn1nc(-c3ccc4c(c3)OCO4)nc1-2` [2-(3,4-Methylenedioxyphenyl)-5H-s-triazolo[5,1-a]isoindole], the “% Animals Aborting” value turned out to be 0% in data set [3] (1 mg/kg/day s.c.), 25% in data set [3] (1.25 mg/kg/day s.c.), 66.7% in data set [3] (2.5 mg/kg/day s.c.) and 100% in data set [3] (5 mg/kg/day s.c.). In data set [2], the responders at 5 mg/kg was at least 60%.

Consider `CCCCc1nc2n(n1)Cc1ccccc1-2` [a, 2-n-butyl-5H-s-triazolo[5,1-a]isoindole], for which the “Per Cent Inhibition of the Edema” value in data set [1] (100 mg/Kg p.o.) is 28 Per Cent. Consider `Clc1ccc(-c2nc3n(n2)Cc2ccccc2-3)cc1` [2-(p-Chlorophenyl)-5H-s-triazolo[5,1-a]isoindole], for which the responders at 5 mg/kg in data set [2] is at least 60%. With `CCCOc1cccc(-c2nc3n(n2)Cc2ccccc2-3)c1` [2-(m-Propoxyphenyl)-5H-s-triazolo[5,1-a]isoindole], the “% Animals Aborting” value in data set [3] (1 mg/kg/day s.c.) was 20%; in data set [3] (1.25 mg/kg/day s.c.), 60%; in data set [3] (2.5 mg/kg/day s.c.), 77.8%; in data set [3] (5 mg/kg/day s.c.) it was 100%. Besides, the responders at 5 mg/kg in data set [2] is at least 60%. Turning to `Clc1cccc(-c2nc3n(n2)Cc2ccccc2-3)c1` [2-(m-Chlorophenyl)-5H-s-triazolo[5,1-a]isoindole], the responders at 5 mg/kg in data set [2] is at least 60%.

Consider `Clc1ccc2c(c1)Cn1nc(-c3ccccc3)nc1-2` [7-Chloro-2-phenyl-5H-s-triazolo[5,1-a]isoindole], for which, in data set [2], the responders at 5 mg/kg was at least 60%.

With `COc1cccc(-c2nc3n(n2)Cc2cc(OC)c(OC)cc2-3)c1` [7,8-Dimethoxy-2-(m-methoxyphenyl)-5H-s-triazolo[5,1-a]isoindole], the responders at 5 mg/kg in data set [2] is at least 60%. With `CCOc1cccc(-c2nc3n(n2)Cc2ccccc2-3)c1` [2-(m-Ethoxyphenyl)-5H-s-triazolo[5,1-a]isoindole], the “% Animals Aborting” value in data set [3] (1 mg/kg/day s.c.) was 33.3%; in data set [3] (1.25 mg/kg/day s.c.), 62.5%; in data set [3] (2.5 mg/kg/day s.c.), 85.7%; in data set [3] (5 mg/kg/day s.c.) it was 100%. In addition, the responders at 5 mg/kg in data set [2] was at least 60%.

Consider `CCOC(=O)NC(=S)Nc1nc2n(n1)Cc1ccccc1-2` [2-carbethoxythioureido-5H-s-triazolo[5,1-a]isoindole], for which the MIC in data set [5] stood at 5 µg/mL (≈ 16.5 µM). In the case of `Fc1cccc(-c2nc3n(n2)Cc2ccccc2-3)c1` [2-(m-Fluorophenyl)-5H-s-triazolo[5,1-a]isoindole], the responders at 5 mg/kg in data set [2] was at least 60%. Consider `Clc1ccc2c(c1)-c1nc(-c3ccccc3)nn1C2` [8-Chloro-2-phenyl-5H-s-triazolo[5,1-a]isoindole], for which, in data set [2], the responders at 5 mg/kg is at least 60%. Regarding `c1cncc(-c2nc3n(n2)Cc2ccccc2-3)c1` [2-(3-pyridyl)-5H-s-triazolo[5,1-aisoindole], in data set [6], the “increase of the pain threshold of the rats” value is on record as 70% and the toxic effect entry is “without provoking any toxic effect”.

For the molecule `Cc1cccc(-c2nc3n(n2)Cc2ccccc2-3)c1` [2-(m-Tolyl)-5H-s-triazolo[5,1-a]isoindole], in data set [2], the responders at 5 mg/kg is at least 60%. Consider `COc1cccc(-c2nc3n(n2)Cc2cc(Cl)ccc2-3)c1` [7-Chloro-2-(m-methoxyphenyl)-5H-s-triazolo[5,1-a]isoindole], for which the responders at 5 mg/kg in data set [2] is at least 60%. Regarding `Nc1nc2n(n1)Cc1ccccc1-2` [2-Amino-5H-s-triazolo[5,1-a]isoindole], in the data set on conditioned rats (30 mg/kg i.p.), the Deconditioned / treated was 8/10. This molecule also registered a 50% lethal dose (LD50) in data set [4] of 600 mg/kg.
